Source: patent publication US10065990B2, “Cyclic peptide compound, and preparation method, pharmaceutical composition and use thereof” (HANGZHOU GUANYU BIO-MEDICAL CO., LTD, priority 2013, dated 2018)
Like-named read-outs stand apart in the source and are kept apart here.

Legend:
HDAC7 = biological target: T1, HDAC7 (Homo sapiens, UniProt Q8WUI4); assay: HDAC biochemical activity measurement (fluorescent substrate deacetylation);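 as to all read-outs here: fluorogenic deacetylation assay using acetyl-lysine substrate at 20 µM, enzyme and compound incubated 30 min at 37 °C, then developer added, fluorescence read at 360/460 nm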; conditions: for IC50 HDAC7: 37° C. 30 minutes
T1 sequence (Q8WUI4 1-952): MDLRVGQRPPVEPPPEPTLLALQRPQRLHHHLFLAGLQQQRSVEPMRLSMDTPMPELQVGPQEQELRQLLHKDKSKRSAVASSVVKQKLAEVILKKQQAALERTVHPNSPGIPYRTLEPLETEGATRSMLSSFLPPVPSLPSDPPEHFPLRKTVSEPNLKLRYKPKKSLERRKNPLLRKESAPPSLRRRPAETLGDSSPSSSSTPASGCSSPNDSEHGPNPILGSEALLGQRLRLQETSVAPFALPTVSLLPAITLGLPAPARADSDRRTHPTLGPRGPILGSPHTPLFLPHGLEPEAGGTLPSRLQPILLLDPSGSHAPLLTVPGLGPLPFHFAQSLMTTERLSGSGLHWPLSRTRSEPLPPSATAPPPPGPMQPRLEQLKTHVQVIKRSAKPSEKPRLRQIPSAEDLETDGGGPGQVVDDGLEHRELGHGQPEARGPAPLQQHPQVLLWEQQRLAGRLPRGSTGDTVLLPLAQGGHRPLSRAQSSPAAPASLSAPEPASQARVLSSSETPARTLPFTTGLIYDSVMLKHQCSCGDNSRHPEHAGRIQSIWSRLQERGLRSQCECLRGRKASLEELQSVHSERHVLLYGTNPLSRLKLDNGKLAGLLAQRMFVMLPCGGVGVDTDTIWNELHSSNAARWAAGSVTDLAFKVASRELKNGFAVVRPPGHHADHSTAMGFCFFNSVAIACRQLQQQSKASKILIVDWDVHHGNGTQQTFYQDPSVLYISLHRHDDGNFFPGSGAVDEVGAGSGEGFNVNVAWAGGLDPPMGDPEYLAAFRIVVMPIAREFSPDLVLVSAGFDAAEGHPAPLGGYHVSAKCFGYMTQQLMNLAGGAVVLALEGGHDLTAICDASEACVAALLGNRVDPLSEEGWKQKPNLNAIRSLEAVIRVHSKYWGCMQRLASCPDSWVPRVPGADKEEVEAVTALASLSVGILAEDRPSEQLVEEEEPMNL

[1] = system: HCC827 (human non-small cell lung cancer cells); assay: MTT cancer cell growth inhibition; assay type: cell-based; conditions: Homo sapiens, HCC827, 72 h, MTT, 72 hours incubation, HCC827 cells; read-out: GI50 HCC827
How it was run: (§1)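 Absorbance at 570 nm of DMSO-dissolved formazan, formed during a 4 h MTT incubation, served as the viability measure. Cells had been exposed 72 h to drug at 10^−5–10^−10 M final; GI50 was calculated from these readings.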

[2] = system: N-87 (human gastric cancer cells); assay: MTT cancer cell growth inhibition; assay type: cell-based; conditions: Homo sapiens, 72 h, MTT, 72 hours incubation, N-87 cells; read-out: GI50 N-87
How it was run: as §1

[3] = system: A549 (human lung cancer cells); assay: MTT cancer cell growth inhibition; assay type: cell-based; conditions: Homo sapiens, A549, 72 h, MTT, 72 hours incubation, read-out: GI50 A54
How it was run: as §1

[4] = system: KBM-5 (human chronic myelogenous leukemia); assay: MTT cancer cell growth inhibition; assay type: cell-based; conditions: Homo sapiens, KBM5, 72 h, MTT, 72 hours incubation, KBM-5 cells; read-out: GI50 KBM-5
How it was run: as §1

[5] = system: HT1080 (human fibrosarcoma cells); assay: MTT cancer cell growth inhibition; assay type: cell-based; conditions: Homo sapiens, HT-1080, 72 h, MTT, 72 hours incubation, read-out: GI50 HT1
How it was run: as §1

[6] = system: Hela (human cervical cancer cells); assay: MTT cancer cell growth inhibition; assay type: cell-based; conditions: Homo sapiens, HeLa, 72 h, MTT, 72 hours incubation, read-out: GI50 Hela
How it was run: as §1

[7] = system: BGC-823 (human gastric cancer cells); assay: MTT cancer cell growth inhibition; assay type: cell-based; conditions: Homo sapiens, BGC-823, 72 h, MTT, 72 hours incubation, read-out: GI50 BG
How it was run: as §1

[8] = system: U937 (human leukemia cells); assay: MTT cancer cell growth inhibition; assay type: cell-based; conditions: Homo sapiens, U-937, 72 h, MTT, 72 hours incubation, read-out: GI50 U93
How it was run: as §1

[9] = system: K562 (human leukemia cells); assay: MTT cancer cell growth inhibition; assay type: cell-based; conditions: Homo sapiens, K562, 72 h, MTT, 72 hours incubation, K562 cells; read-out: GI50 K562
How it was run: as §1

[10] = system: Huh-7 (human hepatoma cells); assay: MTT cancer cell growth inhibition; assay type: cell-based; conditions: Homo sapiens, Huh-7, 72 h, MTT, 72 hours incubation, Huh-7 cells; read-out: GI50 Huh-7
How it was run: as §1

[11] = system: MCF-7 (human breast cancer cells); assay: MTT cancer cell growth inhibition; assay type: cell-based; conditions: Homo sapiens, MCF7, 72 h, 72 hours incubation, read-out: GI50 MCF
How it was run: as §1

[12] = system: KBM5-T315I (human chronic myelogenous leukemia); assay: MTT cancer cell growth inhibition; assay type: cell-based; conditions: Homo sapiens, 72 h, MTT, 72 hours incubation, KBM5-T315I cells; read-out: GI50 KBM5-T315I
How it was run: as §1

[13] = system: PANC-1 (Pac-1, human pancreatic cancer cells); assay: MTT cancer cell growth inhibition; assay type: cell-based; conditions: Homo sapiens, PANC-1, 72 h, MTT, 72 hours incubation, read-out: GI50 PAN
How it was run: as §1

[14] = system: Bel-7402 (human hepatoma cells); assay: MTT cancer cell growth inhibition; assay type: cell-based; conditions: Homo sapiens, Bel-7402, 72 h, MTT, 72 hours incubation, Bel-7402 cells; read-out: GI50 Bel-7402
How it was run: as §1

[15] = system: MDA-MB-231 (breast cancer cells); assay: MTT cancer cell growth inhibition; assay type: cell-based; conditions: Homo sapiens, MDA-MB-231, 72 h, read-out: GI50 MDA-MB-231, MTT, 72 hours incubation, MDA-MB-231 cells
How it was run: as §1

[16] = system: SGC-7901 (human gastric cancer cells); assay: MTT cancer cell growth inhibition; assay type: cell-based; conditions: Homo sapiens, SGC-7901, 72 h, MTT, 72 hours incubation, SGC-7901 cells; read-out: GI50 SGC-7901
How it was run: as §1

[17] = system: DU145 (human prostate cancer cells); assay: MTT cancer cell growth inhibition; assay type: cell-based; conditions: Homo sapiens, DU-145, 72 h, MTT, 72 hours incubation, read-out: GI50 Du1
How it was run: as §1

[18] = system: H1975 (non-small cell lung adenocarcinoma); assay: MTT cancer cell growth inhibition; assay type: cell-based; conditions: Homo sapiens, NCI-H1975, 72 h, MTT, 72 hours incubation, H1975 cells; read-out: GI50 H1975
How it was run: as §1

[19] = system: MOLT-4 (human acute lymphoblastic leukemia cells); assay: MTT cancer cell growth inhibition; assay type: cell-based; conditions: Homo sapiens, MOLT-4, 72 h, MTT, 72 hours incubation, read-out: GI50 Mol
How it was run: as §1

[20] = system: lncap (prostate cancer cells); assay: MTT cancer cell growth inhibition; assay type: cell-based; conditions: Homo sapiens, LNCaP, 72 h, MTT, 72 hours incubation, read-out: GI50 lnca
How it was run: as §1

Structure (SMILES) | IC50 HDAC7 (HDAC7) | GI50 [1] [nM] | GI50 [2] [nM] | GI50 [3] [nM] | GI50 [4] [nM] | GI50 [5] [nM] | GI50 [6] [nM] | GI50 [7] [nM] | GI50 [8] [nM] | GI50 [9] [nM] | GI50 [10] [nM] | GI50 [11] [nM] | GI50 [12] [nM] | GI50 [13] [nM] | GI50 [14] [nM] | GI50 [15] [nM] | GI50 [16] [nM] | GI50 [17] [nM] | GI50 [18] [nM] | GI50 [19] [nM] | also measured
C=C1NC(=O)c2cccc(n2)CNC(=O)C[C@@H](/C=C/CCS)OC(=O)[C@H](C(C)C)NC1=O [Compound 131] | no activity | 59 | 95 | 50 | 63 | 80 | 80 | 40 | 50 | 45 | 23 | 60 | 45 | 40 | 43 | 46 | 31 | 60 | 16 | 80 | GI50 [20]: 80 nM
C/C=C1\NC(=O)c2nc(ccc2SCC)CNC(=O)C[C@@H](/C=C/CCSC(=O)CCCCCC)OC(=O)[C@H](C(C)C)NC1=O [Compound 250] |  | 45 | 43 |  | 53 |  |  |  |  | 27 | 27 |  | 79 |  | 58 | 21 | 63 |  | 38 |  | IC50 (μM) HDAC7 (HDAC7): no activity; GI50 ([3]; A549 cells): 40 nM; GI50 ([5]; HT1080 cells): 60 nM; GI50 ([6]; Hela cells): 70 nM; GI50 ([7]; BGC-823 cells): 40 nM; GI50 ([8]; U937 cells): 80 nM; GI50 ([11]; MCF-7 cells): 40 nM; GI50 ([13]; PANC-1 cells): 30 nM; GI50 ([17]; DU145 cells): 50 nM; GI50 ([19]; MOLT-4 cells): 30 nM; GI50 ([20]; lncap cells): 50 nM
C/C=C1\NC(=O)c2cc(F)cc(n2)CNC(=O)C[C@@H](/C=C/CCS)OC(=O)[C@H](Cc2cccc3ccccc23)NC1=O [Compound 125] | no activity | 29 | 31 | 60 | 64 | 40 | 50 | 30 | 50 | 47 | 25 | 60 | 58 | 120 | 57 | 75 | 39 | 30 | 36 | 110 | GI50 [20]: 110 nM
C/C=C1\NC(=O)c2ccc(F)c(n2)CNC(=O)C[C@@H](/C=C/CCS)OC(=O)[C@H](CCCCNC(=O)OCC2c3ccccc3-c3ccccc32)NC1=O [Compound 122] | no activity | 32 | 48 | 110 | 38 | 30 | 50 | 20 | 110 | 46 | 91 | 30 | 26 | 30 | 49 | 32 | 61 | 80 | 55 | 100 | GI50 [20]: 30 nM
